According to patent US7812014B2, “Bicyclic 6-alkylidene-penems as β-lactamase inhibitors” (priority 2002, dated 2010):

Key:
[1] = test system: Clinical isolates that have been adapted to cause infection in mice; experiment: In vivo antibacterial protection, 7 day survival of infected mice; parameters: species or system mice strain CD-1; settings: Ratio of Piperacillin vs. Inhibitor not given
[2] = test system: E. Coli GC2920 (IRT-2); experiment: Antimicrobial susceptibility testing, microbroth dilution, piperacillin + inhibitor; assay type: cell-based; settings: piperacillin combined with constant 4 ug/ml of inhibitor; 35° C. for 18 hours
Protocol: (§1) Antimicrobial susceptibility testing. The in vitro activities of the antibiotics were determined by the microbroth dilution method as recommended by the National Committee for Clinical Laboratory Standards (NCCLS). (NCCLS. 2000. Methods for Dilution Antimicrobial Susceptibility Tests for Bacteria That Grow Aerobically; Approved Standards: M7-A5, vol. 19. National Committe for Clinical Laboratory Standards, Villanova, Pa.). Mueller-Hinton II broth (MHBII) (BBL Cockeysville, Md.), was used for the testing procedure. Microtiter plates containing 50 μl per well of two-fold serial dilutions of piperacillin combined with a constant amount (4 ug/ml) of a B-lactamase inhibitor were inoculated with 50 μl of inoculum to yield the appropriate density (10^5 CFU/ml) in 100·I final volume. The plates were incubated for 18-22 hours at 35° C. in ambient air. […] The MIC data obtained by the above said procedure are enlisted in Table 2.

[3] = test system: S. aureus GC2216; experiment: as above; assay type: cell-based; settings: piperacillin combined with constant 4 ug/ml of inhibitor; 35° C. for 18 hours
Protocol: as §1

[4] = test system: E. Coli GC22033; experiment: as above; assay type: cell-based; settings: piperacillin combined with constant 4 ug/ml of inhibitor; 35° C. for 18 hours
Protocol: as §1

[5] = test system: E. Coli GC2847 (TEM-1); experiment: as above; assay type: cell-based; settings: piperacillin combined with constant 4 ug/ml of inhibitor; 35° C. for 18 hours
Protocol: as §1

[6] = test system: E. Coli GC2844; experiment: as above; assay type: cell-based; settings: piperacillin combined with constant 4 ug/ml of inhibitor; 35° C. for 18 hours
Protocol: as §1

[7] = test system: E. Coli GC2894 (Ampc); experiment: as above; assay type: cell-based; settings: piperacillin combined with constant 4 ug/ml of inhibitor; 35° C. for 18 hours
Protocol: as §1

[8] = target: class C enzyme AmpC (Enterobacter cloacae, UniProt P05364); experiment: biochemical; parameters: species or system Enterobacter cloaca; settings: enzyme 2.1 nM; 10 minutes preincubation at 25° C.; nitrocefin 50 μg/ml; pH 7.0; read-out: IC50 (nM) Class C AmpC
Chain of class C enzyme AmpC (P05364 21-381): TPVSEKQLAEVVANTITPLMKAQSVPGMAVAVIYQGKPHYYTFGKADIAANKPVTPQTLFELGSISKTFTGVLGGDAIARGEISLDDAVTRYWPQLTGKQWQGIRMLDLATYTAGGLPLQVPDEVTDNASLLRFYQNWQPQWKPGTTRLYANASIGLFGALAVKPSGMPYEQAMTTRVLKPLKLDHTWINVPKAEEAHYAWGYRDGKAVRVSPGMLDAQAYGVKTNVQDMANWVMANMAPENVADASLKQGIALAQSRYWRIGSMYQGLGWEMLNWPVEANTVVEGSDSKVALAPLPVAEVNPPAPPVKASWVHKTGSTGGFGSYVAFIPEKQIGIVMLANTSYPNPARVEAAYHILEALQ

[9] = test system: P. aeruginos GC1764 (Ampc); experiment: Antimicrobial susceptibility testing, microbroth dilution, piperacillin + inhibitor; assay type: cell-based; settings: piperacillin combined with constant 4 ug/ml of inhibitor; 35° C. for 18 hours
Protocol: (§2) Antimicrobial susceptibility testing. The in vitro activities of the antibiotics were determined by the microbroth dilution method as recommended by the National Committee for Clinical Laboratory Standards (NCCLS). (NCCLS. 2000. Methods for Dilution Antimicrobial Susceptibility Tests for Bacteria That Grow Aerobically; Approved Standards: M7-A5, vol. 19. National Committe for Clinical Laboratory Standards, Villanova, Pa.). Mueller-Hinton II broth (MHBII) (BBL Cockeysville, Md.), was used for the testing procedure. Microtiter plates containing 50 μl per well of two-fold serial dilutions of piperacillin combined with a constant amount (4 ug/ml) of a B-lactamase inhibitor were inoculated with 50 μl of inoculum to yield the appropriate density (10^5 CFU/ml) in 100·I final volume. The plates were incubated for 18-22 hours at 35° C. in ambient air.

[10] = test system: E. Cloacae GC1477 (Ampc); experiment: as above; assay type: cell-based; settings: piperacillin combined with constant 4 ug/ml of inhibitor; 35° C. for 18 hours
Protocol: as §2

[11] = test system: S. Marcescens GC1781 Sme-1 + Ampc; experiment: as above; assay type: cell-based; settings: piperacillin combined with constant 4 ug/ml of inhibitor; 35° C. for 18 hours
Protocol: as §2

[12] = target: class A β-lactamase Imi-1 (Enterobacter cloacae, UniProt Q46991); experiment: IC50 determination, β-lactamase inhibition (nitrocefin, spectrophotometric); assay type: biochemical; settings: enzyme 7.1 nM; 10 minutes preincubation at 25° C.; nitrocefin 50 μg/ml; pH 7.0; read-out: IC50 (nM) Class A Imi
Chain of class A β-lactamase Imi-1 (Q46991 28-292): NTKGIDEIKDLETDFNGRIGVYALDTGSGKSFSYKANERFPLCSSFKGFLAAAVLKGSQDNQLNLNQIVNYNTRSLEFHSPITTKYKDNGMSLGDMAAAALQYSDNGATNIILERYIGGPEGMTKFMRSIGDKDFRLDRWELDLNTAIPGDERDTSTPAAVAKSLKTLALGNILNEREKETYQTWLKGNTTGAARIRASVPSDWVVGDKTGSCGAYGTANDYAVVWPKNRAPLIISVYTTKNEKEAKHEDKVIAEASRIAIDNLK

[13] = target: class B enzyme CcrA (Bacteroides fragilis, UniProt P25910); experiment: as above; assay type: biochemical; settings: enzyme 1.2 nM; 10 minutes preincubation at 25° C.; nitrocefin 50 μg/ml; pH 7.0; read-out: IC50 (nM) Class B Ccr
Chain of class B enzyme CcrA (P25910 19-249): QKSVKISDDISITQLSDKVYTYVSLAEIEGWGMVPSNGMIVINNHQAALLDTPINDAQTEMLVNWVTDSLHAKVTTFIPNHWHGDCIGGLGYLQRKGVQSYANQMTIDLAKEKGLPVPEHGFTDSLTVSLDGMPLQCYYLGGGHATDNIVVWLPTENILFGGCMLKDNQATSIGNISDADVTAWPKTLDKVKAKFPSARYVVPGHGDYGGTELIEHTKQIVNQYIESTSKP

[14] = target: class A β-lactamase TEM-1 (Escherichia coli, UniProt P62593); experiment: as above; assay type: biochemical, E. coli; settings: enzyme 4.3 nM; 10 minutes preincubation at 25° C.; nitrocefin 50 μg/ml; pH 7.0
Chain of class A β-lactamase TEM-1 (P62593 24-286 limits assumed): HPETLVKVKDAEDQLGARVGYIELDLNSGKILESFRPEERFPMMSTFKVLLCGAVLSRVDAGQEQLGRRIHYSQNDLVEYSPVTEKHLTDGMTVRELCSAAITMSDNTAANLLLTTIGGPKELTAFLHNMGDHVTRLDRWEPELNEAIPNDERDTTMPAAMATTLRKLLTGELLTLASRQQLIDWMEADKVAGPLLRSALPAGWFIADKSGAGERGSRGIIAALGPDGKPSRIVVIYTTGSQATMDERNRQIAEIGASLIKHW

## O=C([O-])C1=CS[C@@H]2/C(=C\c3cc4n(n3)CCCO4)C(=O)N12.[Na+] [Example 36, (5R)(6Z)-6-(6,7-5H-Dihydropyrazolo[5,1-b]oxazin-2-ylmethylene)-7-oxo-4-thia-1-azabicyclo[3.2.0]hept-2-ene-2-carboxylic acid, sodium salt]
[1]
  ED50: 90 mg/kg
[2]
  Minimal Inhibitory Concentration E. Coli GC2920 (IRT-2): 2 µg/mL
[3]
  Minimal Inhibitory Concentration S. aureus GC2216: 0.06 µg/mL
[4]
  Minimal Inhibitory Concentration E. Coli GC22033: 4 µg/mL
[5]
  Minimal Inhibitory Concentration E. Coli GC2847 (TEM-1): 4 µg/mL
[6]
  Minimal Inhibitory Concentration E. Coli GC2844: 2 µg/mL
[7]
  Minimal Inhibitory Concentration E. Coli GC2894 (Ampc): 2 µg/mL
[8]
  IC50: 4.5 nM
[9]
  Minimal Inhibitory Concentration P. aeruginos GC1764 (Ampc): 1 µg/mL
[10]
  Minimal Inhibitory Concentration E. Cloacae GC1477 (Ampc): 16 µg/mL
[11]
  Minimal Inhibitory Concentration S. Marcescens GC1781 Sme-1 + Ampc: 1 µg/mL
[12]
  IC50: 413 nM
[13]
  IC50: 140 nM
[14]
  IC50: 6.3 nM
